This note sets out measurements from ChEMBL document CHEMBL1833925, “Synthesis and structure-activity relationship of 4-quinolone-3-carboxylic acid based inhibitors of glycogen synthase kinase-3β” (Bioorg Med Chem Lett, 2011).

≈ marks a conversion by molar mass, not a printed value.

The target in assay [1] is Glycogen synthase kinase-3 beta (Homo sapiens, UniProt P49841). The assay can be described thus: Inhibition of human recombinant full length GSK3-beta after 1 hrs by luminescence assay.
In a further assay the test system is Escherichia coli. Put plainly: Antibacterial activity against Escherichia coli after 18 hrs by microdilution assay. Format: functional. On the technique in general: In broth dilution the organism is exposed to a series of concentrations in liquid medium.
The subject of a further assay is Staphylococcus aureus. Put plainly: Antibacterial activity against Staphylococcus aureus after 18 hrs by microdilution assay. Format: functional.

Chain of Glycogen synthase kinase-3 beta (P49841 whole entry): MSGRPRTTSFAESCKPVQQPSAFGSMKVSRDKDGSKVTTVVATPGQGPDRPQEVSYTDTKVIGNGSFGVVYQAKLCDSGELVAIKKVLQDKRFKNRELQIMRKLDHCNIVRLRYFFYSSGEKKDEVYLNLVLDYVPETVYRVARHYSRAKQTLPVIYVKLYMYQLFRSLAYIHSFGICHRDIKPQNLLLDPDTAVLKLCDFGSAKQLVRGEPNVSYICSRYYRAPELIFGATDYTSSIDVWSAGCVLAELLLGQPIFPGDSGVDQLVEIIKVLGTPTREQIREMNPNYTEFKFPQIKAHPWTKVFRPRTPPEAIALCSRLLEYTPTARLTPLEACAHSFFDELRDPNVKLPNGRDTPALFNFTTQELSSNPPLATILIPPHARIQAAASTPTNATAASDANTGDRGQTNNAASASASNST

The term IC50 denotes the point on the concentration scale where inhibition reaches its midpoint. The term MIC denotes the smallest concentration in the dilution series that meets the test's criterion for growth inhibition. High values mean a less susceptible organism, low ones a more susceptible organism. Take `COc1c(NCCNc2ccccn2)c(F)c(N)c2c(=O)c(C(=O)O)cn(CCC(C)C)c12`: the IC50 in assay [1] stood at 16 µM. Moreover, the MIC in the assay on Escherichia coli and in the assay on Staphylococcus aureus was above 28 µM each time.
As for `Nc1c(F)c(NCCCc2ccccc2)c(F)c2c1c(=O)c(C(=O)O)cn2C1CC1`, in assay [1], the IC50 stood at 0.045 µM.
Still for that read-out and setting: the figure for `COc1c(NCCCc2ccccc2)c(F)cc2c(=O)c(C(=O)O)cn(C3CC3)c12` is 17 µM.
With `Nc1ccc(CCNc2c(F)c(N)c3c(=O)c(C(=O)O)cn(C4CC4)c3c2F)cc1`, the IC50 in assay [1] came out at 0.9 µM.
As for `C[C@@H]1COc2c(NCCNc3ccccn3)c(F)c(N)c3c(=O)c(C(=O)O)cn1c23`, the IC50 in assay [1] was 0.56 µM. Besides, the MIC in the assay with Escherichia coli is above 243 µM; with Staphylococcus aureus, 243 µM (≈ 100 µg/mL).
In the case of `Nc1c(F)c(NC2CCCCC2)c(F)c2c1c(=O)c(C(=O)O)cn2C1CC1`, the IC50 in assay [1] worked out at 0.6 µM.
`Nc1c(F)c(NCCNc2ccccn2)c(F)c2c1c(=O)c(C(=O)O)cn2C1CCCC1`: the IC50 in assay [1] turned out to be 0.022 µM. Further, the minimal inhibitory concentration (MIC) against Escherichia coli and with Staphylococcus aureus was above 29 µM each time.
Consider `C[C@H]1COc2c(NCCNc3ccccn3)c(F)c(N)c3c(=O)c(C(=O)O)cn1c23`, for which the IC50 in assay [1] is 0.044 µM. The minimal inhibitory concentration (MIC) with Escherichia coli worked out at 4 µM (≈ 1.65 µg/mL); against Staphylococcus aureus, 2 µM (≈ 0.827 µg/mL).
Regarding `Nc1c(F)c(NCCNc2cccc3ccccc23)c(F)c2c1c(=O)c(C(=O)O)cn2C1CC1`, the IC50 in assay [1] worked out at 0.047 µM.
Take `CC(C)[C@H]1COc2c(NCCNc3ccccn3)c(F)c(N)c3c(=O)c(C(=O)O)cn1c23`: the IC50 in assay [1] stood at 0.075 µM. Moreover, the MIC in the assay with Escherichia coli is above 29 µM; in the assay on Staphylococcus aureus it was 14 µM (≈ 6.18 µg/mL).
On to `CC1(C)Cn2cc(C(=O)O)c(=O)c3c(N)c(F)c(NCCNc4ccccn4)c(c32)O1`, for which, in assay [1], the half-inhibitory concentration (IC50) was 0.44 µM. The MIC against Escherichia coli and in the assay with Staphylococcus aureus was above 37 µM in each case.
Take `Nc1c(F)c(NCCc2ccncc2)c(F)c2c1c(=O)c(C(=O)O)cn2C1CC1`: in assay [1], the IC50 stood at 0.1 µM.
Turning to `Nc1c(F)c(NCCN2CCOCC2)c(F)c2c1c(=O)c(C(=O)O)cn2C1CC1`, the IC50 in assay [1] stood at 2.1 µM.
Turning to `CC1(C)COc2c(NCCNc3ccccn3)c(F)c(N)c3c(=O)c(C(=O)O)cn1c23`, the IC50 in assay [1] came to 0.049 µM. The minimal inhibitory concentration (MIC) against Escherichia coli and in the assay with Staphylococcus aureus was 59 µM (≈ 25.2 µg/mL) in each case.
With `Nc1c(F)c(NCCNc2ccccn2)c(F)c2c1c(=O)c(C(=O)O)cn2C1CC1`, the IC50 in assay [1] was determined as 0.19 µM.
As for `COc1c(NCCNc2ccccn2)c(F)c(N)c2c(=O)c(C(=O)O)cn(C3CC3)c12`, in assay [1], the IC50 came to 0.16 µM. For the same compound, the MIC in the assay on Escherichia coli turned out to be 9 µM (≈ 3.85 µg/mL); in the assay on Staphylococcus aureus, 1 µM (≈ 0.427 µg/mL).
With `Nc1c(F)c(NCCCn2ccnc2)c(F)c2c1c(=O)c(C(=O)O)cn2C1CC1`, the IC50 in assay [1] amounted to 0.045 µM.
As for `COc1c(NCCNc2ccccn2)c(F)c(N)c2c(=O)c(C(=O)O)cn(C3CCCC3)c12`, the IC50 in assay [1] was 1.5 µM. Also, the MIC against Escherichia coli is above 28 µM; in the assay on Staphylococcus aureus, 7 µM (≈ 3.19 µg/mL).
Take `COc1c(NCCCc2ccccc2)c(F)c(N)c2c(=O)c(C(=O)O)cn(C3CC3)c12`: in assay [1], the IC50 was 0.065 µM.
For `COc1c(NCCNc2ccccn2)c(F)c(N)c2c(=O)c(C(=O)O)cn(C)c12`, the IC50 in assay [1] was determined as 0.27 µM. Moreover, the MIC in the assay on Escherichia coli is above 13 µM; against Staphylococcus aureus it was 13 µM (≈ 5.22 µg/mL).
The matching figures for `COc1c(NCCNc2ccccn2)c(F)c(N)c2c(=O)c(C(=O)O)c[nH]c12`: 1 µM, 25 µM (≈ 9.68 µg/mL) and 25 µM (≈ 9.68 µg/mL).
On to `CC(C)[C@@H]1COc2c(NCCNc3ccccn3)c(F)c(N)c3c(=O)c(C(=O)O)cn1c23`, for which the IC50 in assay [1] is 0.031 µM. Moreover, the MIC against Escherichia coli and with Staphylococcus aureus was above 2 µM each time.
As to `Nc1c(F)c(NCCc2ccccc2)c(F)c2c1c(=O)c(C(=O)O)cn2C1CC1`, in assay [1], the IC50 came out at 0.44 µM.
As for `CC(C)OCCCNc1c(F)c(N)c2c(=O)c(C(=O)O)cn(C3CC3)c2c1F`, the IC50 in assay [1] is 0.11 µM.
With `Nc1c(F)c(NCCCCc2ccccc2)c(F)c2c1c(=O)c(C(=O)O)cn2C1CC1`, the IC50 in assay [1] was found to be 0.29 µM.
Consider `CC(C)Nc1c(F)c(N)c2c(=O)c(C(=O)O)cn(C3CC3)c2c1F`, for which the IC50 in assay [1] amounted to 1.2 µM.
As to `Nc1c(F)c(NCCc2c[nH]c3ccccc23)c(F)c2c1c(=O)c(C(=O)O)cn2C1CC1`, the concentration for half-maximal inhibition (IC50) in assay [1] amounted to 0.66 µM.
In the case of `Nc1c(F)c(NCCNc2ccccn2)c2c3c1c(=O)c(C(=O)O)cn3C1(CCCC1)CO2`, in assay [1], the IC50 is 0.012 µM. Also, the figures for the minimum inhibitory concentration (MIC) against Escherichia coli and against Staphylococcus aureus were above 71 µM and 71 µM (≈ 32.2 µg/mL), respectively.
Consider `Nc1c(F)c(NCCNc2ccccn2)cc2c1c(=O)c(C(=O)O)cn2C1CC1`, for which the IC50 in assay [1] is 0.013 µM. The results for the MIC against Escherichia coli and in the assay on Staphylococcus aureus were 0.8 µM (≈ 0.318 µg/mL) and 0.2 µM (≈ 0.0795 µg/mL), respectively.
With `Nc1c(F)c(NCCNc2ccccn2)c2c3c1c(=O)c(C(=O)O)cn3C1(CCC1)CO2`, the IC50 in assay [1] is 0.057 µM. Further, the MIC against Escherichia coli and in the assay with Staphylococcus aureus was above 36 µM in each case.
For the compound `CC1(C)COc2c(NCCNc3ccccn3)c(F)c(N)c3c(=O)c(C(=O)O)cn(c23)C1`, the IC50 in assay [1] is 0.16 µM. Further, the minimal inhibitory concentration (MIC) against Escherichia coli and in the assay with Staphylococcus aureus was above 7 µM each time.
Take `COc1c(NCCNc2cccc3ccccc23)c(F)c(N)c2c(=O)c(C(=O)O)cn(C3CC3)c12`: in assay [1], the IC50 worked out at 0.031 µM.
As for `COc1c(NCCNc2cccc3ccccc23)c(F)cc2c(=O)c(C(=O)O)cn(C3CC3)c12`, the IC50 in assay [1] amounted to 26 µM.
In the case of `Nc1c(F)c(NCCn2ccnc2)c(F)c2c1c(=O)c(C(=O)O)cn2C1CC1`, in assay [1], the IC50 turned out to be 3.4 µM.
